Assay results as given in patent publication US12163111B2 (priority 2017, dated 2024).
Read-outs that look alike come from different tables or passages of the source.

Tests used:
[1] = Description: Various materials used to manufacture a cell culture device have been tested. One material used for the cell culture device, PEEK, is a strong plastic polymer that is resistant to wear. PEEK is advantageous in drug testing because it is non-absorbent as opposed to, for example, the commonly used poly(dimethylsiloxane) (PDMS), which is known to retain small hydrophobic molecules, such as nicotine. PEEK has been found not to retain nicotine or NNK, another small hydrophobic molecule. Therefore, the cell culture device is suitable for the testing of drug effects on the tissues housed within the cell culture device without risk of the drug concentration (or concentration of its metabolites) being altered by the material.
PEEK has the advantage of not being absorbent towards small molecules. […] This is important since materials used for commercially available plates such as PDMS are known to trap small hydrophobic molecules.

[2] = PDMS plate, 8 hours incubation at 4° C.

SMILES	absorbance of PEEK towards the molecule (trapping by the material) [1]	amount of nicotine remaining in the plate ([1]; 8 h)	amount of nicotine remaining in the plate [2]
CN(CCCC(=O)c1cccnc1)N=O [NNK, 4-(methylnitrosamino)-1-(3-pyridyl)-1-butanone]	not trapped by the material	–	–
CN1CCCC1c1cccnc1 (stereo not shown) [nicotine]	not trapped by the material	about 100%	about 35%
